Values quoted from earlier work, collected in publication PMC12443862, “The second life of Citrus bergamia: bioavailability analysis of a new formulation using waste-based microencapsulation as a valuable source of bioactive compounds” (Pharmacological Reports, 2025).

Design: method as in PMID 25200135
Details: hesperidin micronization (5.1 μm)

Which “Increase of flavanone's bioavailability compared to conventional hesperidin (32.8 μm)” value does the source give for `COc1ccc([C@@H]2CC(=O)c3c(O)cc(O[C@@H]4O[C@H](CO[C@@H]5O[C@@H](C)[C@H](O)[C@@H](O)[C@H]5O)[C@@H](O)[C@H](O)[C@H]4O)cc3O2)cc1O` [hesperidin] here?
Its value is 2 fold.
